Activity calls are given as the source filed them.
Experiments:
[1] = target: T1, Leucine aminopeptidase (Plasmodium falciparum 3D7, UniProt Q8IL11); assay: P. falciparum M17LAP inhibitors, primary screen, biochemical, fluorogenic H-Leu-NHMec substrate, 1536-well (AID 1619); assay type: functional
T1 sequence (Q8IL11 whole entry): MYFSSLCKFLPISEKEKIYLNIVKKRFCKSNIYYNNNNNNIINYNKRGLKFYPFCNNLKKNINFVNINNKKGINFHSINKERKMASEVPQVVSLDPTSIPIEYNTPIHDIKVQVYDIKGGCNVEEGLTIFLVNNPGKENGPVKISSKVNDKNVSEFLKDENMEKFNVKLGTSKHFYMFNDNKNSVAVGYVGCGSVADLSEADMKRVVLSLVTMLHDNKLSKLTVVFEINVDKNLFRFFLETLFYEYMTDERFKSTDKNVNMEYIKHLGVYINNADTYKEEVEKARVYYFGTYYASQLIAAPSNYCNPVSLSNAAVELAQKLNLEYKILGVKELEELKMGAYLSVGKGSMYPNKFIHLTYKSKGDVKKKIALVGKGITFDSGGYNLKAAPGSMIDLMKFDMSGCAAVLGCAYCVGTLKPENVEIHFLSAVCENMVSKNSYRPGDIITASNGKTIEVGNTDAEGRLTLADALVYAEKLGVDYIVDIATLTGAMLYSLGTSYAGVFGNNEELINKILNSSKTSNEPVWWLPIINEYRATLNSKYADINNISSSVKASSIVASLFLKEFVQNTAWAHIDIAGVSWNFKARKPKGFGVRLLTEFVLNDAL

[2] = target: T2, Cytochrome P450 3A4 (Homo sapiens, UniProt P08684); settings: Potency
T2 sequence (P08684 whole entry): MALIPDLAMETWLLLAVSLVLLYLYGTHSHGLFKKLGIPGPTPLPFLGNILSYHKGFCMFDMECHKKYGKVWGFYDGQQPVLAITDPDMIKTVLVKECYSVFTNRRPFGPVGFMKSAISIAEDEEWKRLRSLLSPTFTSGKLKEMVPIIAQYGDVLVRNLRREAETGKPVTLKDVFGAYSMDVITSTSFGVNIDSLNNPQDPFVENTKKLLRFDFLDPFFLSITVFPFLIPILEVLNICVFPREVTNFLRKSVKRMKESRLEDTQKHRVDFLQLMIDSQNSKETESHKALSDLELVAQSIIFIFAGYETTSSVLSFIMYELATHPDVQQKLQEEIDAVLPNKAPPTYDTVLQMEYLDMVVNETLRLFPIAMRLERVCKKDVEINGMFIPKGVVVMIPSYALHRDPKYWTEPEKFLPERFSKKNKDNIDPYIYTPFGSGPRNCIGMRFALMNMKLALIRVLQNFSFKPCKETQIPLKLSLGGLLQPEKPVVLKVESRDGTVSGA

[3] = system: H9c2; assay: cells; assay type: functional, cell-based; settings: Rattus norvegicus, H9c2, Myocardium;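 also: confirmatory concentration-response retest of ultra-high-throughput screening hits for modulation of myocardial damage; cell death induced by hydrogen peroxide oxidative stress; compound pretreatment for 60 min then peroxide exposure for 2 h; potency is for protecting the cells against peroxide damage rather than for killing them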
[4] = target: T2, Cytochrome P450 3A4
[5] = target: T3, Short transient receptor potential channel 4 (Mus musculus, UniProt Q9QUQ5); assay: mouse TRPC4 channel inhibitors, dose response, cell-based, HEK293 TRPC4/mu-opioid, Fluo-4 calcium (AID 434942); assay type: functional;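 also: potency of inhibitors blocking the TRPC4 calcium response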
T3 sequence (Q9QUQ5 whole entry): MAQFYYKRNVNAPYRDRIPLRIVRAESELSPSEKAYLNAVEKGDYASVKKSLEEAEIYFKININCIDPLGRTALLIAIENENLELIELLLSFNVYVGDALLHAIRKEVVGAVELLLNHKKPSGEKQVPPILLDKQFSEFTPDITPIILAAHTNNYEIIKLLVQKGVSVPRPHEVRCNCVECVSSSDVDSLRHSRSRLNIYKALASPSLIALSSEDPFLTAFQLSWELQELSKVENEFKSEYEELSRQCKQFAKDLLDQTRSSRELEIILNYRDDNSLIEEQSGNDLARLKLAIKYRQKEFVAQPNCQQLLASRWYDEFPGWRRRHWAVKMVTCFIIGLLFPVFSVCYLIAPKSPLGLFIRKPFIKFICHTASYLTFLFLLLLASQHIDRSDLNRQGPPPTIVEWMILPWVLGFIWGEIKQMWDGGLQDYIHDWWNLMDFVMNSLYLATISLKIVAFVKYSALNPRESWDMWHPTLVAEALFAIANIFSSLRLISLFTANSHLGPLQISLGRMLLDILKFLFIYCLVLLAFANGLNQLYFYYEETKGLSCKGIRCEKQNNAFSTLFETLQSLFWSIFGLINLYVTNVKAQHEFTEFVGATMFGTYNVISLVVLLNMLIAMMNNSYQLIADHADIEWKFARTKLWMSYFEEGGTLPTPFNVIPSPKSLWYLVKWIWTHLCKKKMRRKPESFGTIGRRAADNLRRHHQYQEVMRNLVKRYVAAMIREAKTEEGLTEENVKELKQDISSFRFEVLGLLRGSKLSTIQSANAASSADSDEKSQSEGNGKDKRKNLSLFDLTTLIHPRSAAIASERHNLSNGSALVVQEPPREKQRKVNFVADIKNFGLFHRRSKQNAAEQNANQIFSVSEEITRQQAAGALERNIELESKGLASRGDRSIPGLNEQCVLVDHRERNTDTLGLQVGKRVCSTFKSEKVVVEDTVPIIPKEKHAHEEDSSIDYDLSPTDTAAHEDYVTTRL

[6] = inhibitors of HIV Env-driven cell fusion, dose response, cherry-pick (AID 652057); assay type: functional, cell-based
[7] = ZM109 Env clade C HIV-1 fusion inhibitors, dose response, HeLa effector, CEM target cells, luciferase, cherry-pick (AID 652058); assay type: functional, cell-based
[8] = inhibitors of clade B AD8 Env fusion, dose response, cell-based, cherry-pick (AID 652062); assay type: functional;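 also: luciferase signal from cell-cell fusion driven by HIV-1 clade B AD8 Env; potency is for inhibitors of fusion seen as a drop in luminescence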
[9] = target: T4, Rac GTPase-activating protein 1 (Homo sapiens, UniProt Q9H0H5); assay: MgcRacGAP GTPase-activating activity inhibitors, confirmation, biochemical, ADP Hunter fluorescence, primary and confirmatory (AID 624330); assay type: functional
T4 sequence (Q9H0H5 whole entry): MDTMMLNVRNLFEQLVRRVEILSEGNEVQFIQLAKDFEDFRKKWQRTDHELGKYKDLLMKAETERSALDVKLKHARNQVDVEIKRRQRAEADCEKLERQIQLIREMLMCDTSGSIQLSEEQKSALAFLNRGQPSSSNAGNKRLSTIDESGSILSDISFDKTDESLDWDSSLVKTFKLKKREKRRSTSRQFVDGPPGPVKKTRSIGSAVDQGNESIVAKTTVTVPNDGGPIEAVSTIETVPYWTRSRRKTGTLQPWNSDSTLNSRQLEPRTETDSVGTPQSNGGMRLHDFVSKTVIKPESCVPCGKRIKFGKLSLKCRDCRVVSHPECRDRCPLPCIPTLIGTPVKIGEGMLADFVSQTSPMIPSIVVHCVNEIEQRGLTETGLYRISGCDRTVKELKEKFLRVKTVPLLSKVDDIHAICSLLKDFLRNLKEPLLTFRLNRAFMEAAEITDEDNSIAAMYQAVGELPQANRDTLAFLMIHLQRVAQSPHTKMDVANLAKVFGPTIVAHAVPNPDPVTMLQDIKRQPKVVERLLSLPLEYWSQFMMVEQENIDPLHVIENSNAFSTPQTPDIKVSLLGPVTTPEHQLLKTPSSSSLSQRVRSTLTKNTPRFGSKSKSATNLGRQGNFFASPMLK

[10] = inhibitors of firefly luciferase expression or activity, dose response, H4 neuroglioma cells, luminescence (AID 1990); assay type: functional, cell-based
[11] = Luminescence Cell-Based Dose Response HTS to Identify Inhibitors of 5'UTR Stem-Loop Driven Prion Protein mRNA Translation in H4 Neuroglioblastoma Cells. [Related pubchem assays: 1827 (Project Summary), 1813 (Primary HTS)]; assay type: functional
[12] = inhibitors of SNCA 5'UTR-driven reporter translation, confirmation, H4 neuroglioma cells, luminescence (AID 1988); assay type: functional, cell-based
[13] = system: Streptococcus sp. 'group A'; assay: growth inhibition of control SK(-) GAS strain, dose response, counter-screen for streptokinase expression inhibitor project, luminescence, kanamycin, BacTiterGlo, confirmation (AID 1900); assay type: functional, organism-based
[14] = target: T5, Streptokinase A (Streptococcus pyogenes serotype M1, UniProt P10520); assay: S. pyogenes streptokinase expression inhibitors, potency, dose response, plasminogen activation absorbance, OD405 (AID 1914); assay type: functional, Streptococcus pyogenes M1 GAS;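 also: secreted streptokinase activity via plasminogen activation per viability signal from cell pellet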
T5 sequence (P10520 whole entry): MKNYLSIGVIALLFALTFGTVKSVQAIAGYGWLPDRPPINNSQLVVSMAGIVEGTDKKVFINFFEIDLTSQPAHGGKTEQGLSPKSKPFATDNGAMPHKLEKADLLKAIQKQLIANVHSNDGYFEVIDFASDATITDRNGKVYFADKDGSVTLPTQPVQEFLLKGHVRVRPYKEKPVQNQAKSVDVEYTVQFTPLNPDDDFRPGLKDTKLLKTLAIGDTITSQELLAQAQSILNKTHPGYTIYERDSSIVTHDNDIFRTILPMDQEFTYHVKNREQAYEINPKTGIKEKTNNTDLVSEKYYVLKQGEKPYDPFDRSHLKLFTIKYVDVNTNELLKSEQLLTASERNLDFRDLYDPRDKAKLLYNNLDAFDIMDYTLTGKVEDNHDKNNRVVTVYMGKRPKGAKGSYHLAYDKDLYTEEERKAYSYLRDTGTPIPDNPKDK

[15] = system: Streptococcus; assay: Group A Streptococcus viability loss, dose response, counter-screen for streptokinase expression inhibitor project, luminescence, BacTiterGlo (AID 1915); assay type: functional, organism-based;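 also: potency for reduction of bacterial viability or growth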

## O=c1[nH]c2ccc(S(=O)(=O)N3CCN(Cc4ccccc4)CC3)cc2[nH]c1=O
[1]
  IC50: 2.62 µM (active)

## CC1(C)C(O)CC(O)[C@]2(C)C1CC(O)[C@]1(C)C2CC[C@@]2(C)C(c3ccoc3)CC3OC312 (stereo partly specified)
[2]
  AC50: 3.16 µM (inconclusive)

## O=S(=O)(Nc1nc2ccccc2nc1NCCN1CCOCC1)c1cccc(Cl)c1
[1]
  IC50: 25.9 µM (active)

## Cc1ccc(NC(=O)CCc2nc(O)c3ccccc3n2)cc1S(=O)(=O)N1CCOCC1
[3]
  IC50: > 79 µM (inactive)

## Cc1ccc(C=NNc2nc3c(=O)n(C)c(=O)n(C)c3[nH]2)cc1
[3]
  IC50: > 79 µM (inactive)

## CC1=NNC(=O)C1CCC(=O)N/N=C\c1ccccc1[N+](=O)[O-] (stereo unspecified)
[1]
  IC50: 3.14 µM (active)
[4]
  AC50: 17.8 µM (inconclusive)

## O=C(O[C@@H]1Cc2c(O)cc(O)cc2OC1c1ccc(O)c(O)c1)c1cc(O)c(O)c(O)c1 (stereo partly specified)
[2]
  AC50: 25.1 µM (inconclusive)

## CCOC(=O)C1CCN(c2cc3c(cc2NC(=O)c2ccccc2)n(C)c(=O)n3C)CC1
[3]
  IC50: > 79 µM (inactive)

## COCCN(CCOC)c1nc(C)nc2c1nc(-c1ccccc1)n2CCCN(C)C
[2]
  AC50: 7.94 µM (inconclusive)

## CCCCN(CC)c1c([N+](=O)[O-])cc(C(F)(F)F)cc1[N+](=O)[O-] [BENFLURALIN]
[2]
  AC50: 15.8 µM (inconclusive)

## COc1ccc(NC(=O)c2cccc(N3C(=O)C4CC=C(C)CC4C3=O)c2)c(OC)c1 (stereo unspecified)
[5]
  EC50: 0.0173 µM (active)

## COc1cccc(-c2cnc3c(c2)C(=O)N([C@H](C)CO)C[C@H](C)[C@H](CN(C)C(=O)Nc2cccc4ccccc24)O3)c1
[6]
  AC50: < 0.26 µM (active)
[7]
  AC50: 0.284 µM (active)
[8]
  AC50: 0.407 µM (active)

## COc1ccc(Br)cc1CNC(C)c1ccccc1 (stereo unspecified)
[5]
  EC50: 5.31 µM (active)

## N#C/C(=C\c1cn(-c2ccccc2)nc1-c1cccnc1)c1nnc2n1CCCCC2
[3]
  IC50: 15.8 µM (active)

## O=C(Nc1ccccc1)N1CCN2C(=O)c3ccccc3C12c1ccccc1 (stereo unspecified)
[5]
  EC50: 2.11 µM (active)

## Cc1cc(=O)oc2c(O)c(O)ccc12 [4-METHYLDAPHNETIN]
[9]
  IC50: 25.9 µM (active)
[2]
  AC50: 25.1 µM (inconclusive)

## COc1ccc(CNC(=O)N(C)C[C@H]2OCc3ccccc3-c3ccccc3C(=O)N([C@H](C)CO)C[C@@H]2C)cc1
[6]
  AC50: 0.826 µM (active)
[7]
  AC50: 1.16 µM (active)
[8]
  AC50: 3.51 µM (active)

## COc1ccc2c(=O)cc(-c3ccccc3)oc2c1O
[2]
  AC50: 39.8 µM (inconclusive)

## Cc1nc2c3cc(Cl)ccc3n(CCN3CCCCC3)c2s1
[5]
  EC50: 4.22 µM (active)

## CCOC(=O)c1c(NC(=O)C2C3C=CC(C3)C2C(=O)O)sc2c1CC(C)CC2 (stereo unspecified)
[1]
  IC50: 10.1 µM (active)
[10]
  EC50: > 120 µM (not active)
[11]
  EC50: 60.9 µM (active)
[12]
  EC50: 48.1 µM (active)

## NS(=O)(=O)c1cccc(NC(=O)COC(=O)Cc2nnc(O)c3ccccc23)c1
[3]
  IC50: > 79 µM (inactive)

## Cc1sc2nc(SCC(=O)N3CCCC3)nc(O)c2c1C
[3]
  IC50: > 79 µM (inactive)

## O=C(NC(=S)NNC(=O)c1ccc(Cl)cc1Cl)c1cccnc1
[1]
  IC50: 49.6 µM (active)
[13]
  EC50: 5.27 µM (active)
[14]
  EC50: > 150 µM (not active)
[15]
  EC50: 96.5 µM (active)

## COc1ccc(Cc2nnc(NS(=O)(=O)Cc3ccccc3)s2)cc1
[1]
  IC50: 6.34 µM (active)

— ChEMBL document CHEMBL1201862, “PubChem BioAssay data set” (2004)
